Where a SMILES comes first, the peptide text is derived from it. Bridges are numbered along the chain shown (N, C = ends). [ ]: non-standard residue; d: D form. S5 = C=CCCC[C@](C)(N)C(=O)O
How the values were obtained:
[1] = target: Cathepsin D (Homo sapiens, UniProt P07339); format: in vitro ADME; settings: pH 4.4
Experimental: For identification of Cathepsin B, D, and L metabolism, parent cross-linked peptide and positive control linear peptide (4 mM each in DMSO) was separately aliquoted (5 μL) to 1 mL volumes of 67 mM ammonium acetate solutions buffered either to pH 5.4 (cat B, L) and add 10 mM DTT, or to pH 4.4 (cat D) and add 0.117M KCl. Single enzyme working solution (10 μg/mL) was then added (40 μL) to each peptide solution (20 μM) to yield initial weight ratio (%) of 1:20 for each enzyme and peptide pair. Each mixture was placed in a 38-40° C. oven for incubation times of 30 and 60 min. At each time point, the reaction was stopped by addition of 500 μL of 48:48:2 v/v(%) hexafluoro-2-propanol/acetonitrile/TFA. A biphasic mixture formed after mixing and the bottom layer liquid was diluted (1:10) into acetonitrile: water and subsequently injected in duplicate for gradient LC/Ion Mobility TOF-MS analyses.
Ion mobility-MS and MS-MS analysis and peptide sequencing were performed on a Waters (Milford, Mass.) Synapt high-resolution ion-mobility-time-of flight mass spectrometer. Samples were prepared by dilution of the unpurified cross-linked peptide proteolysis product samples 10-fold into 1:1 acetonitrile-water containing 0.1% formic acid. LC-MS analyses were performed by reverse-phase gradient elution with 0.1% formic acid and 0.1% formic acid in acetonitrile as eluants at 500 μL/min. […]

[2] = target: Bcl-xL (Homo sapiens, UniProt Q07817); experiment: Protein-ligand binding experiment by SEC-LC-MS; settings: 1 μM SP-4 and 5 μM Bcl-xL, 60 min at room temperature
Experimental: Protein-ligand binding experiments for Bcl-xL. Simple protein-ligand binding experiments were conducted using the following representative procedure outlined for a simple system-wide control experiment using 1 μM SP-4 and 5 μM Bcl-xL. A 1 μL, DMSO aliquot of a 40 μM stock solution of SP-4 is dissolved in 19 μL of PBS (Phosphate-buffered saline: 50 mM, pH 7.5 Phosphate buffer containing 150 mM NaCl). The resulting solution is mixed by repeated pipetting and clarified by centrifugation at 10 000 g for 10 min. To a 4 μL, aliquot of the resulting supernatant is added 4 μL, of 10 μM BCL-xL in PBS. Each 8.0 μL experimental sample thus contains 40 pmol (1.5 μg) of protein at 5.0 μM concentration in PBS plus 1 μM SP-4 and 2.5% DMSO. Duplicate samples thus prepared for each concentration point are incubated for 60 min at room temperature, and then chilled to 4° C. prior to size-exclusion chromatography-LC-MS analysis of 5.0 μL injections. Samples containing a target protein, protein-ligand complexes, and unbound compounds are injected onto an SEC column, where the complexes are separated from non-binding component by a rapid SEC step. The SEC column eluate is monitored using UV detectors to confirm that the early-eluting protein fraction, which elutes in the void volume of the SEC column, is well resolved from unbound components that are retained on the column. […]

Sequence of Bcl-xL (Q07817 whole entry, species assumed): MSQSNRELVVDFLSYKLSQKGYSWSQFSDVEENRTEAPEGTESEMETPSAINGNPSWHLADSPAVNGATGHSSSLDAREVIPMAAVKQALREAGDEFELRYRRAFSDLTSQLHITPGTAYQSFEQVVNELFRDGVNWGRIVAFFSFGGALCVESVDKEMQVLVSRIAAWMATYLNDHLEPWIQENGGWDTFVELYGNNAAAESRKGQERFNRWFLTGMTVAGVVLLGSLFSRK
Sequence of Cathepsin D (P07339 65-412, species assumed): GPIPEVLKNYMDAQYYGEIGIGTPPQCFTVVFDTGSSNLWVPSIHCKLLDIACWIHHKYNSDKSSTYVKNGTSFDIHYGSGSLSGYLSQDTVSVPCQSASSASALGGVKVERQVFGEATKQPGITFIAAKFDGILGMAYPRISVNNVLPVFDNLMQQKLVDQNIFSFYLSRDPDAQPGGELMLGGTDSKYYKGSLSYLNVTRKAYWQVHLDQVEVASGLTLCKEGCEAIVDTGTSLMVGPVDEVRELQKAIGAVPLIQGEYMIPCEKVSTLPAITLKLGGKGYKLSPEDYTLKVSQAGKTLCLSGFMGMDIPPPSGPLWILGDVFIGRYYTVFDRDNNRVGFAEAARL

Row | cleavage site by cathepsin-D (proteolysis products) [1] | detection of protein-ligand complex with Bcl-xL [2] | Compound
1 | at F—Y residues | – | CC[C@H](C)[C@H](NC(=O)[C@H](Cc1c[nH]c2ccccc12)NC(=O)[C@H](CCCNC(=N)N)NC(C)=O)C(=O)N[C@@H](C)C(=O)N[C@@H](CCC(N)=O)C(=O)N[C@@H](C)C(=O)N[C@@H](CC(C)C)C(=O)N[C@@H](CCCNC(=N)N)C(=O)N[C@@]1(C)CCC/C=C\CCC[C@@](C)(C(=O)N[C@@H](Cc2ccccc2)C(=O)N[C@@H](CC(N)=O)C(=O)N[C@@H](C)C(=O)N[C@@H](Cc2ccccc2)C(=O)N[C@@H](Cc2ccc(O)cc2)C(=O)N[C@@H](C)C(=O)N[C@@H](CCCNC(=N)N)C(=O)N[C@@H](CCCNC(=N)N)C(N)=O)NC(=O)[C@H](CC(=O)O)NC(=O)CNC(=O)[C@H]([C@@H](C)CC)NC1=O [SP-1, Ac-RWIAQALR$IGD$FNAFYARR-NH2] (Ac-RWIAQALR[S5]IGD[S5]FNAFYARR-NH2; staple (Z) 9-13)
2 | – | detection of the protein-ligand complex | Ac-IWIAQALR$IGD$FNAYYARR-NH2 [SP-4]

— patent publication US20110223149A1, “PEPTIDOMIMETIC MACROCYCLES” (AILERON THERAPEUTICS, INC., priority 2009, published 2011)
